Assay results reported in paper PMC9264368, “Structural Analysis and Development of Notum Fragment Screening Hits” (ACS Chemical Neuroscience, 2022).
Read-outs that look alike come from different tables or passages of the source.

Assays:
[1] = target: T1, Notum (Homo sapiens, UniProt Q6P988, C330S); conditions: for LE (ligand efficiency): LE = 1.4(−pIC50)/HAC; for LLE (lipophilic ligand efficiency): LLE = pIC50 – clogP; for LE / LLE: supplementary CSV; for IC50: read-out: Notum IC50, Table S1, mean ± s.d. of N = 2-4 unless stated
T1 sequence (Q6P988 81-451 C330S): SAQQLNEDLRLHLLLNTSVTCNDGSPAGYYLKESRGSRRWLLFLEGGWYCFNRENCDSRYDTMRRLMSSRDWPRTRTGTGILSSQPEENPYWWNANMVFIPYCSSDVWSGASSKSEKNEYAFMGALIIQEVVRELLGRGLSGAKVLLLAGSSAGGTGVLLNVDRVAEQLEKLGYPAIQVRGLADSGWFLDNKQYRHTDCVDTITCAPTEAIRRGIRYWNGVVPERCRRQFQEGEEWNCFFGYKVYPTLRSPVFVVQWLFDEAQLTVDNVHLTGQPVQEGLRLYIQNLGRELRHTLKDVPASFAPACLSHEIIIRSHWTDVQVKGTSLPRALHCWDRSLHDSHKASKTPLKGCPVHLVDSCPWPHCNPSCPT

[2] = target: T1, Notum; assay: biochemical
[3] = Notum IC50, OPTS substrate, 10-point curves 30 nM to 1 mM, mean ± s.d. of N = 2–4 unless stated, Table 1 and figures
[4] = IC50 (µM), supplementary CSV, Notum IC50 values for 1–58

SMILES	LE (ligand efficiency) [1]	LLE (lipophilic ligand efficiency) [1]	LE [1]	LLE [1]	IC50 [2, 3]	IC50 [1]	IC50 [2, 4]	IC50 ([2]; pIC50, Table 1, Notum OPTS assay)	fold improvement in Notum inhibition ([1]; versus parent: 7 vs 26, 16a vs 16, 15a vs 15, 7c vs 7b)
Cc1ccc(C)c(OC(=O)c2ccncc2)c1 [compound 50]	0.37	1.1	0.37	1.1	36 ± 2.7 µM				
N#CNc1nc2c(Cl)cccc2[nH]1 [15c]						2.2 ± 0.31 µM			
FC(F)(F)c1cc(CNCc2ccc3c(c2)OCO3)ccc1Cl [28a, 1-(Benzo[d][1,3]dioxol-5-yl)-N-(4-chloro-3-(trifluoromethyl)benzyl)methanamine]					16 ± 1.5 µM				
O=C1CN(C(=O)COc2ccccc2)CCN1 [compound 56]					> 100 µM		> 100 µM		
CC(=O)Nc1cccc2nonc12 [compound 2]	0.42	2.5	0.42	2.5	140 ± 31 µM				
NCc1cc(-c2ccccc2)no1 [compound 24]	0.53	3.7	0.53	3.7	12 ± 3.2 µM				
Cc1ccc2[nH]c(NC#N)nc2c1 [15g]						100 ± 4.4 µM			
COc1ccc(CNC(=O)[C@@H]2CCCO2)cc1 [compound 43]	0.34	2.7	0.34	2.7	87 ± 47 µM				
Nc1ccccc1Nc1ccccn1 [compound 33]	0.33	1.6	0.33	1.6	500 ± 64 µM				
O=C(O)Cc1ccc(-c2ccccc2)cc1 [compound 14, 2-[(1,1’-Biphenyl)-4-yl]acetic acid]	0.33	0.9	0.33	0.9	58 ± 8.2 µM				
CCc1ccc(OCC(=O)N2CCCCC2)cc1 [compound 31]	0.30	0.7	0.3	0.7	120 ± 30 µM				
O=S1(=O)CCN(Cc2ccco2)CC1 [compound 30]					> 1000 µM		> 1000 µM		
N#CNc1nc2c(Br)cccc2[nH]1 [15d]						2.3 ± 0.54 µM			
NNC(=O)c1ccccc1OCc1ccccc1 [compound 34]	0.27	1.4	0.27	1.4	330 ± 11 µM				
CCn1c(NC(C)=O)nc2ccccc21 [compound 57]	0.33	1.5	0.33	1.5	260 ± 51 µM			316 µM	
C[C@H]1CCCCN1C(=O)N1CCOCC1 [compound 19]	0.29	1.2	0.29	1.2	750 ± 17 µM				
COc1cc(-c2ccccc2)nc(N)n1 [compound 46]	0.32	0.7	0.32	0.7	380 ± 130 µM				
N#CNc1nc2cc(Br)ccc2[nH]1 [15i]						15 ± 3.7 µM			
CCC(=O)Nc1ccc(C)cc1O [compound 42]					> 1000 µM		> 1000 µM		
C[C@@H](Oc1ccc(-c2ccccc2)cc1)C(=O)O [compound 55]	0.29	0.2	0.29	0.2	200 ± 76 µM				
Nc1ccc(S(=O)(=O)Nc2ccccn2)cc1 [compound 11, 4-Amino-N-(2-pyridin-2-yl)benzenesulfonamide]					> 1000 µM		> 1000 µM		
N#CNc1nc2cc(Cl)ccc2[nH]1 [15h]						29 ± 16 µM			
Cn1c(NC#N)nc2ccccc21 [15b]						5 ± 0.77 µM			
N#Cc1ccc(Cn2cnc3ccccc32)cc1 [compound 12, 4-(Benzimidazol-1-ylmethyl)benzonitrile]	0.25	0.7	0.25	0.7	570 ± 20 µM				
N#CCN1CCN(c2cccc(Cl)c2)CC1 [compound 23]	0.28	0.7		0.7	600 ± 59 µM				
FC(F)(F)c1cc(-c2cc[nH]n2)ccc1Cl [16a]					1.4 ± 0.1 µM				2.3 fold
Cc1nc2ccccn2c1C(=O)NCC(C)C [compound 10]	0.26	0.6	0.26	0.6	700 ± 100 µM				
